Patent US12421225B2, “Heteroaromatic amide derivative and medicament containing the same” (KAKEN PHARMACEUTICAL CO., LTD., priority 2018, dated 2025)

Legend:
human Nav1.5 = human Nav1.5 (Homo sapiens (Human), UniProt Q14524); assay: Human Nav1.5 inhibitory activity evaluation (automated patch clamp QPatch16X, HEK293 cells stably expressing human Nav1.5); type: cell-based
Procedure, shortened: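 IC50 derived from concentration-response of inward current at the 20th of 20 action-potential-mimicking pulses (holding −80 mV, leak corrected with −100 mV step). HEK293 cells stably expressing human Nav1.5, room temperature, extracellular pH 7.4, intracellular CsF-based pH 7.3, 0.1% DMSO.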

human Nav1.7 = human Nav1.7 (Homo sapiens (Human), UniProt Q15858); assay: Human Nav1.7 inhibitory activity evaluation (automated patch clamp QPatch16X, HEK293A cells stably expressing human Nav1.7 and human Navβ1); type: cell-based
Procedure, shortened: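 IC50 calculated from the concentration-response of inward current evoked by the second −10 mV, 50 ms depolarisation, which follows a 15 s conditioning step at roughly 30-40% inactivation and a 100 ms −120 mV interval. Cells: HEK293A expressing human Nav1.7/Navβ1, automated patch clamp, room temperature, 0.1% DMSO final.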

[1] = HEK293 cells stably expressing human Nav1.5, automated patch clamp QPatch16X
[2] = HEK293A cells stably expressing human Nav1.7 and human Navβ1, automated patch clamp QPatch16X
[3] = human Nav1.5, automated patch clamp
[4] = human Nav1.7, automated patch clamp

human Nav1.5, sequence (Q14524 whole entry): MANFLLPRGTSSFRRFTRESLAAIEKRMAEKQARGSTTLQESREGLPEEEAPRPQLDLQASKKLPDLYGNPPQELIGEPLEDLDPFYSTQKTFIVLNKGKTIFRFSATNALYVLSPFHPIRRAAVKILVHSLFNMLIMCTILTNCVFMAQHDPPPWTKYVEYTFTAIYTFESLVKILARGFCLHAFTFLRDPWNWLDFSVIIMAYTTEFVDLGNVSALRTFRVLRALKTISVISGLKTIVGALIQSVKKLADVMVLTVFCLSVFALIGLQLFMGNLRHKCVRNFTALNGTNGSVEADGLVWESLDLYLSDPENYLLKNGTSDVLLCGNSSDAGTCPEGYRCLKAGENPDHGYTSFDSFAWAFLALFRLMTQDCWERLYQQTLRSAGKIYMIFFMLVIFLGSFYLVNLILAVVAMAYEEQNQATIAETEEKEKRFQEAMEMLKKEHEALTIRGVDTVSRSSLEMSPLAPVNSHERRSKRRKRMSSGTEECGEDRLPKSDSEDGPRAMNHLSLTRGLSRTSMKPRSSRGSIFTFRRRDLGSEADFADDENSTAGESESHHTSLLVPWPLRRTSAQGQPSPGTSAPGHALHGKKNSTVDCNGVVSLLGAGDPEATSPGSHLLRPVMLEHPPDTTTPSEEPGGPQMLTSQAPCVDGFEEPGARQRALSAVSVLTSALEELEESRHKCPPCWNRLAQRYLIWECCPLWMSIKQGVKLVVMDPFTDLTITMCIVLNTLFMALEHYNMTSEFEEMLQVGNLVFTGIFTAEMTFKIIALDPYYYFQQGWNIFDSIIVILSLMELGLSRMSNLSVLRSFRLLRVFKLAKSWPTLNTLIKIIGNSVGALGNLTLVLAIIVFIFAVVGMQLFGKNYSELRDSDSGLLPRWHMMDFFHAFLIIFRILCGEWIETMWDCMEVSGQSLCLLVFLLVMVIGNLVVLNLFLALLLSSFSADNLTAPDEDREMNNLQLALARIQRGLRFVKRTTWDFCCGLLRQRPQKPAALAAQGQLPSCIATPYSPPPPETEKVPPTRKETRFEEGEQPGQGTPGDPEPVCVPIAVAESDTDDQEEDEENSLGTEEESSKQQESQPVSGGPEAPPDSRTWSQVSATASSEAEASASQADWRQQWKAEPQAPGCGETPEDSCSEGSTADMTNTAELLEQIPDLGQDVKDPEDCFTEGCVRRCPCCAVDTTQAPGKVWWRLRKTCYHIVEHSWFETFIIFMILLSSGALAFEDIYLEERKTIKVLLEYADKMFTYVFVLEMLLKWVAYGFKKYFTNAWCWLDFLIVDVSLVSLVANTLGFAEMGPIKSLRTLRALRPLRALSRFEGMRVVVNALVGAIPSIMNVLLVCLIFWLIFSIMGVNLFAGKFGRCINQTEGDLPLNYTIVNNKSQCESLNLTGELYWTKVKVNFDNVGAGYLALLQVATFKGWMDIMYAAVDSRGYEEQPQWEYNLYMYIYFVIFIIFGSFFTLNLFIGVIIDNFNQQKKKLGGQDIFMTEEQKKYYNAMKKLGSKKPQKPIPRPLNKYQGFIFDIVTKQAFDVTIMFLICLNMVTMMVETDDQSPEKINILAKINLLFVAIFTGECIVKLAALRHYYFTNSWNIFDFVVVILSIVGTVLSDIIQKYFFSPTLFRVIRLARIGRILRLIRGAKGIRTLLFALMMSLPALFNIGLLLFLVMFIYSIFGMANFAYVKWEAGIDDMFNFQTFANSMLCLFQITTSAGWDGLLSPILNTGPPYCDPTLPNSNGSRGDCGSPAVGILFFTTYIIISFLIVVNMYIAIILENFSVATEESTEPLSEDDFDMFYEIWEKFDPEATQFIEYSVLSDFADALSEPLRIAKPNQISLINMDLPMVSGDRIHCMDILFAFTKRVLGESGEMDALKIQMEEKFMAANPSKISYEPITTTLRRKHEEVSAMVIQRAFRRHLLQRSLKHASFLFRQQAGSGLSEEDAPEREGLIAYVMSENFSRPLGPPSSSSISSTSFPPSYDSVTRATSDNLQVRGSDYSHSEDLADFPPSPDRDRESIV
human Nav1.7, sequence (Q15858 whole entry): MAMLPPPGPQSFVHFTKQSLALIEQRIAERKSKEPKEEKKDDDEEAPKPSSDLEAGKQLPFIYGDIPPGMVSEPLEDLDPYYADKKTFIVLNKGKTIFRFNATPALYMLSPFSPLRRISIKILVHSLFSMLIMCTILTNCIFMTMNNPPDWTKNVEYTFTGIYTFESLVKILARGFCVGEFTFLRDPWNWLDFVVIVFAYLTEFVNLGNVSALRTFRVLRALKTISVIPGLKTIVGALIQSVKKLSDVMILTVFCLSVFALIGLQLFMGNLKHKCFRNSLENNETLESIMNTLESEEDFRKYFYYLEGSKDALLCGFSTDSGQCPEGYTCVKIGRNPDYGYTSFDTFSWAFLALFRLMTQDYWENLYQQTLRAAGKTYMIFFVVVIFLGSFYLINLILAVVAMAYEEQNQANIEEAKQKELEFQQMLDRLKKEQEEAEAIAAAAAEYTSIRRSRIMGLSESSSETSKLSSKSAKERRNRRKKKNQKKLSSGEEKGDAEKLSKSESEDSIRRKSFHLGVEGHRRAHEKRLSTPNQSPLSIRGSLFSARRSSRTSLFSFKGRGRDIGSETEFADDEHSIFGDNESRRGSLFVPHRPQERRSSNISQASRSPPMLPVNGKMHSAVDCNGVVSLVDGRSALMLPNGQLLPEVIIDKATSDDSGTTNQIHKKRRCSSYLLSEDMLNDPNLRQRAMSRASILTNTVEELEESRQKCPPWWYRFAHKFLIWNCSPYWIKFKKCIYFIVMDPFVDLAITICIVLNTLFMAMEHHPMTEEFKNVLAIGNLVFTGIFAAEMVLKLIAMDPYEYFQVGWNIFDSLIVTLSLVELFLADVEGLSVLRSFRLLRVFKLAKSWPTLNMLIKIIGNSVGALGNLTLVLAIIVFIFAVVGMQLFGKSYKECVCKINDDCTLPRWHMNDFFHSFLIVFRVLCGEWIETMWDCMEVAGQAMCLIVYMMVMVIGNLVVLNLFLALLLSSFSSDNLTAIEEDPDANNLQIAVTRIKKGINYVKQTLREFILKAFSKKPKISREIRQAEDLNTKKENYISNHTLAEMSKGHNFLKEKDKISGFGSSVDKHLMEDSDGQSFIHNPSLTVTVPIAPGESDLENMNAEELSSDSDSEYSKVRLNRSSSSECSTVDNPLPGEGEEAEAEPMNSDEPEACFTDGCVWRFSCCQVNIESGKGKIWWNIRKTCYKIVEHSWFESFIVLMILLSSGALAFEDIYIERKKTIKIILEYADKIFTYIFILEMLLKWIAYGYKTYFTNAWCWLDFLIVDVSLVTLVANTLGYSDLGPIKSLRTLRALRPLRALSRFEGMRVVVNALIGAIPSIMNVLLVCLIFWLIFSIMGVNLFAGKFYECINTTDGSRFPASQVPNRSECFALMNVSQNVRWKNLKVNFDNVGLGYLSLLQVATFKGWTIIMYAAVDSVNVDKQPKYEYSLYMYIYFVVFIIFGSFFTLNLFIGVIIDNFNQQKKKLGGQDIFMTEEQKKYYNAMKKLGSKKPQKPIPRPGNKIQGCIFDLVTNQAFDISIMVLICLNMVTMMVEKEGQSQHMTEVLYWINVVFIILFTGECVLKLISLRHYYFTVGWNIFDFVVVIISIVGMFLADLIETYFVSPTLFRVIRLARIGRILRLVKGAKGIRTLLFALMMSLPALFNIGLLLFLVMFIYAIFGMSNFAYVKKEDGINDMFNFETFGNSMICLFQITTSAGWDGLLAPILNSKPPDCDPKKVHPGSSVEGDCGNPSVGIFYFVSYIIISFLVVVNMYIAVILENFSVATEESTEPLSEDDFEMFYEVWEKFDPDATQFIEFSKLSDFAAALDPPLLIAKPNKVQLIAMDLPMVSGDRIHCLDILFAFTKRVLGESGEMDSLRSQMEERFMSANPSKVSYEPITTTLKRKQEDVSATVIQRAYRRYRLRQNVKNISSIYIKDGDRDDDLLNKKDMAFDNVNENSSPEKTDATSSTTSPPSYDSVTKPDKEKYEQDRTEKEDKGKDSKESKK
human Nav1.7, sequence (Q07699 19-218 partner): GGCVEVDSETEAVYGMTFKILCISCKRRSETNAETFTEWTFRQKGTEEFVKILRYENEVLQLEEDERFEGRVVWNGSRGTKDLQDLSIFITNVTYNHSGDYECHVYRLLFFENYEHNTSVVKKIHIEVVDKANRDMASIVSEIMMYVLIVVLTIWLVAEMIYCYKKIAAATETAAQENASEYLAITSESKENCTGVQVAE

SMILES | IC50 (human Nav1.5; [1]) [µM] | IC50 (human Nav1.7; [2]) [µM] | IC50 (human Nav1.5; [3]) [µM] | IC50 (human Nav1.7; [4]) [µM]
C[C@@H]1CCn2nc(C(=O)N[C@H]3COc4ccc(Cl)cc4C3)cc2O1 [Example 87] | ≥ 3 | < 10 |  | 
O=C(NCCc1cccc(C(F)(F)F)c1)c1cn2c(n1)CNC(c1cccc(C(F)(F)F)n1)C2 (centres unmarked) [Example 324] |  |  | ≥ 3 | < 10
CN1Cc2nc(C(=O)NCC(F)(F)c3cccc(C(F)(F)F)c3)cn2CC1c1ccccc1 (centres unmarked) [Example 331] |  |  | 1 to 3 | < 10
CN1Cc2nc(C(=O)NC3COc4cccc(C(F)(F)F)c4C3)cn2CC1c1ccccc1 (centres unmarked) [Example 334] |  |  | 1 to 3 | < 10
Cn1cc(-c2ccc3c(c2)C[C@@H](NC(=O)c2cc4n(n2)CC(CCOC(F)F)O4)CO3)cn1 (single isomer, unassigned) [221 (isomer A)] |  |  | ≥ 3 | < 10
CCC(O)(CC)C1CCn2nc(C(=O)N[C@H]3COc4ccc(Cl)cc4C3)cc2O1 (some centres unmarked) [Example 168] |  |  | ≥ 3 | < 10
CC(C)(F)C1CCn2nc(C(=O)N[C@H]3COc4ccc(C#N)cc4C3)cc2O1 (some centres unmarked) [Example 540] |  |  | 1 to 3 | < 1
O=C(N[C@H]1COc2ccc(C(F)(F)F)cc2C1)c1nn2c(c1-c1ccn[nH]1)OCCCC2 [Example 258, (R)-3-(1H-pyrazol-5-yl)-N-(6-(trifluoromethyl)chroman-3-yl)-5,6,7,8-tetrahydropyrazolo[5,1-b][1,3]oxazepine-2-carboxamide] |  |  | < 1 | < 1
O=C(N[C@H]1COc2ccc(C(F)(F)F)cc2C1)c1nc2n(c1-c1ccccn1)CCOC2 [Example 67] | < 1 | < 1 |  | 
CCCOCC1CCn2nc(C(=O)N[C@H]3COc4ccc(C#N)cc4C3)cc2O1 (stereo partly drawn) [Example 100, N—((R)-6-cyanochroman-3-yl)-5-(propoxymethyl)-6,7-dihydro-5H-pyrazolo[5,1-b][1,3]oxazine-2-carboxamide] | ≥ 3 | < 10 |  | 
O=C(c1cn2c(n1)CCC(CCc1ccccc1)C2)N1CCC(Oc2ccccn2)C1 (centres unmarked) [Example 29] | 1 to 3 | < 10 |  | 
O=C(N[C@H]1COc2ccc(COCC(F)(F)F)cc2C1)c1cc2n(n1)CC(COCC(F)(F)F)O2 (single isomer, unassigned) [188 (isomer B)] |  |  | ≥ 3 | < 1
O=C(N[C@H]1COc2ccc(COCC(F)(F)F)cc2C1)c1cc2n(n1)CCC(COCC(F)(F)F)CO2 (single isomer, unassigned) [602 (isomer A)] |  |  | ≥ 3 | < 1
O=C(NCCc1cccc(C(F)(F)F)c1)c1nc2n(c1-c1ccccc1)CCCC2 [Example 22] | ≥ 3 | < 10 |  | 
O=C(N[C@H]1COc2ccc(COCC(F)(F)F)cc2C1)c1cc2n(n1)CCC(COC(F)F)O2 (some centres unmarked) [Example 139] | ≥ 3 | < 1 |  | 
CC(C)(C)CCC1Cn2cc(C(=O)N[C@H]3COc4ccccc4C3)nc2CN1 (some centres unmarked) [Example 328] |  |  | 1 to 3 | < 10
O=C(N[C@H]1COc2ccc(C(F)(F)F)cc2C1)c1nn2c(c1-c1ccccn1)CN(CC(F)(F)F)CC2 [Example 267] |  |  | < 1 | < 10
CCc1ccc2c(c1)C[C@@H](NC(=O)c1cn3c(n1)CCC(C(F)(F)F)C3)CO2 (some centres unmarked) [Example 11] | ≥ 3 | < 1 |  | 
O=C(N[C@H]1COc2ccccc2C1)c1cn2c(n1)CNC(CCC1CCCC1)C2 (some centres unmarked) [Example 51] | 1 to 3 | < 1 |  | 
O=C(N[C@H]1COc2ccccc2C1)c1cc2n(n1)CC(c1ccccc1)O2 (some centres unmarked) [Example 181] |  |  | ≥ 3 | < 1
COC1c2cc(C(F)(F)F)ccc2OC[C@@H]1NC(=O)c1cc2n(n1)CC(COCC(F)(F)F)O2 (single isomer, unassigned; isomer b) [597(isomer B)] |  |  | 1 to 3 | < 1
O=C(N[C@H]1COc2cccc(Cl)c2C1)c1cc2n(n1)CCN(CCC(F)(F)F)C2 [Example 262] |  |  | ≥ 3 | < 10
O=C(N[C@H]1COc2ccc(Br)cc2C1)c1cn2c(n1)CCC(C(F)(F)F)C2 (some centres unmarked) [Example 5] | 1 to 3 | < 1 |  | 

SMILES | IC50 (human Nav1.5; [1]) [µM] | IC50 (human Nav1.7; [2]) [µM] | IC50 (human Nav1.5; [3]) [µM] | IC50 (human Nav1.7; [4]) [µM]
N#Cc1ccc2c(c1)C[C@@H](NC(=O)c1cc3n(n1)CCCC(c1ccccc1)O3)CO2 (some centres unmarked) [Example 251] |  |  | ≥ 3 | < 1
O=C(N[C@H]1COc2ccc(Cl)cc2C1)c1cc2n(n1)CCN(CC1CCC1(F)F)C2 (some centres unmarked) [Example 494] |  |  | 1 to 3 | < 1
N#Cc1ccc2c(c1)C[C@@H](NC(=O)c1cc3n(n1)CC(CCSCC(F)(F)F)O3)CO2 (single isomer, unassigned) [244 (isomer B)] |  |  | < 1 | < 1
O=C(N[C@H]1COc2ccc(COCC(F)(F)F)cc2C1)c1cc2n(n1)CC(COCC(F)(F)F)O2 (stereo partly drawn) [Example 187, 2-((2,2,2-trifluoroethoxy)methyl)-N—((R)-6-((2,2,2-trifluoroethoxy)methyl)chroman-3-yl)-2,3-dihydropyrazolo[5,1-b]oxazole-6-carboxamide] |  |  | ≥ 3 | < 1
O=C(N[C@H]1COc2ccc(CCOC(F)F)cc2C1)c1cc2n(n1)CC(CCOC(F)F)O2 (single isomer, unassigned) [217 (isomer B)] |  |  | < 1 | < 1
O=C(N[C@H]1COc2ccc(C(F)(F)F)cc2C1F)c1cc2n(n1)CC[C@H](C(F)F)O2 (single isomer, unassigned; isomer a) [579(isomer A)] |  |  | 1 to 3 | < 1
O=C(N[C@H]1COc2ccc(COCC(F)(F)F)cc2C1)c1cc2n(n1)CCC(COCC(F)(F)F)O2 (single isomer, unassigned) [129 (isomer B)] | 1 to 3 | < 1 |  | 
N#Cc1ccc2c(c1)C[C@@H](NC(=O)c1cc3n(n1)CCN(CC(F)(F)C(F)(F)F)C3)CO2 [Example 489] |  |  | ≥ 3 | < 10
O=C(N[C@H]1COc2ccc(Cl)cc2C1)c1cc2n(n1)CCC(COc1ccccn1)O2 (some centres unmarked) [Example 117] | < 1 | < 1 |  | 
O=C(N[C@H]1COc2ccc(Cl)cc2C1)c1cc2n(n1)CC(CCNCC(F)(F)F)O2 (some centres unmarked) [Example 225] |  |  | 1 to 3 | < 1
Cn1ccc(-c2ccc3c(c2)C[C@@H](NC(=O)c2cc4n(n2)CC(CCOCC2CC2)O4)CO3)n1 (some centres unmarked) [Example 461] |  |  | 1 to 3 | < 1
N#Cc1ccc2c(c1)C[C@@H](NC(=O)c1cc3n(n1)CCC(COCC1CC1)O3)CO2 (single isomer, unassigned) [103 (isomer B)] | ≥ 3 | < 10 |  | 
Cc1ccccc1C1CCn2nc(C(=O)N[C@H]3COc4ccccc4C3)cc2C1 (some centres unmarked) [Example 68] | ≥ 3 | < 10 |  | 
N#Cc1ccc2c(c1)C[C@@H](NC(=O)c1cc3n(n1)CCC(c1ccccc1C#N)O3)CO2 (some centres unmarked) [Example 72] | ≥ 3 | < 1 |  | 
O=C(N[C@H]1COc2ccc(COCC3CC3)cc2C1)c1cc2n(n1)CCC(C(F)(F)F)O2 (some centres unmarked) [Example 391] |  |  | ≥ 3 | < 1
CC1(C)CCn2nc(C(=O)N[C@H]3COc4ccc(C#N)cc4C3)cc2O1 [Example 178] |  |  | ≥ 3 | < 10
O=C(NC1COc2cccc(Br)c2C1)c1cn2c(n1)CCC(C(F)(F)F)C2 (single isomer, unassigned) [9 (isomer A)] | ≥ 3 | < 10 |  | 
O=C(N[C@H]1COc2ccc(CCOC(F)F)cc2C1)c1cc2n(n1)CCC(COC(F)F)O2 (single isomer, unassigned) [142 (isomer A)] |  |  | 1 to 3 | < 1
N#Cc1ccc2c(c1)C[C@@H](NC(=O)c1cc3n(n1)CC(CCCOC(F)(F)F)O3)CO2 (single isomer, unassigned) [247 (isomer A)] |  |  | 1 to 3 | < 1
N#Cc1ccc2c(c1)C[C@@H](NC(=O)c1cc3n(n1)CCC(CSC(F)(F)F)O3)CO2 (single isomer, unassigned) [156 (isomer A)] |  |  | ≥ 3 | < 1
O=C(NC1COc2ccc(F)cc2C1)c1cc2n(n1)CCC(c1ccccc1)O2 (centres unmarked) [Example 352] |  |  | ≥ 3 | < 1
O=C(N[C@H]1COc2ccc(CCOC(F)F)cc2C1)c1cc2n(n1)CCC(COC(F)F)O2 (single isomer, unassigned) [142 (isomer B)] |  |  | ≥ 3 | < 1
O=C(N[C@H]1COc2ccc(CC(F)F)cc2C1)c1cc2n(n1)CC(CCOCC(F)(F)F)O2 (some centres unmarked) [Example 466] |  |  | 1 to 3 | < 1
